Source: patent US12077503B2, “Substituted cyclic amides and their use as herbicides” (FMC CORPORATION, priority 2015, dated 2024)

Row | SMILES | melting point [°C]
1 | CC(C)=CC1CNC(=O)C1C(=O)Nc1ccccc1F (centres unmarked) [Compound 1011] | 136 to 140
2 | C=C(C)c1cccc([C@H]2CN(C)C(=O)[C@@H]2C(=O)Nc2ccc(F)c(F)c2F)c1 [Compound 1087] | 98 to 102
